Reference: ChEMBL document CHEMBL3425399, “Progress in discovery of small-molecule modulators of protein-protein interactions via fragment screening” (Bioorg Med Chem Lett, 2015)
pEC50, pKd: −log10 of the molar value.

Tests used:
[1] = molecular target: GTPase KRas (Homo sapiens, UniProt P01116); experiment: Binding affinity to KRas (unknown origin)
[2] = system: Hepacivirus hominis; experiment: Inhibition of HCV NS3 protease at 500 uM by FRET assay
[3] = system: Hepatitis C virus; experiment: Antiviral activity against HCV by cell based viral replicon assay; assay type: functional, organism-based, Hepacivirus hominis
[4] = system: Hepacivirus hominis; experiment: Inhibition of HCV NS3 protease at 0.01 uM by FRET assay
[5] = molecular target: T1, DNA repair protein RAD51 homolog 1 (Homo sapiens, UniProt Q06609); experiment: Binding affinity to RAD51 (unknown origin) by isothermal calorimetry
T1 sequence (Q06609 whole entry): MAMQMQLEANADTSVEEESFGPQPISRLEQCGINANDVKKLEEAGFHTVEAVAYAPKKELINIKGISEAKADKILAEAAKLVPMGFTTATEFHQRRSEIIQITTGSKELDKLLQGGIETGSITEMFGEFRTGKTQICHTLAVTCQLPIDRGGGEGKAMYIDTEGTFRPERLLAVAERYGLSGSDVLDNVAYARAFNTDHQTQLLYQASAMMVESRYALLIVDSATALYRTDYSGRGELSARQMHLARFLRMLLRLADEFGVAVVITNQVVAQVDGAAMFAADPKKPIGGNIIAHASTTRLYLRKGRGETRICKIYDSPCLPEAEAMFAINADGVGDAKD

Chain of GTPase KRas (P01116 whole entry): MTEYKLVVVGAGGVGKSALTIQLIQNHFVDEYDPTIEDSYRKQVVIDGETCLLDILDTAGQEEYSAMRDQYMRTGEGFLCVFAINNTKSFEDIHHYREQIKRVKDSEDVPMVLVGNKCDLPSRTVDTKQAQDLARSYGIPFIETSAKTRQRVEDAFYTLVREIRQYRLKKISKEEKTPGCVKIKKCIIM

| Structure (SMILES) | pKd [5] | further results |
| --- | --- | --- |
| Cc1[nH]c2ccccc2c1Cc1nc2ccccc2[nH]1 | – | pKd [1]: 2.70 |
| CC[C@H](C)[C@H](N)C(=O)Nc1ccc2nc(Cc3c[nH]c4ccccc34)[nH]c2c1 | – | pKd [1]: 3.72 |
| NCc1ccc(Oc2ccccc2)cc1 | – | inhibition [2]: 55% |
| CC[C@@H](N[C@@H](C)CC(=O)NCCN)c1ccc(Cl)c(Oc2ccccc2)c1F | – | pEC50 [3]: 8.10; inhibition [4]: 68% |
| N[C@@H](Cc1c[nH]c2ccccc12)C(=O)OCCc1ccccc1 | 4.46 | – |
| COC(=O)[C@@H](N)Cc1c[nH]c2ccccc12 [TRYPTOPHAN METHYL ESTER] | 3.24 | – |
| Oc1ccc2[nH]ccc2c1 | 2.68 | – |
| O=S(=O)(NCCc1c[nH]c2ccccc12)c1cc(Br)c(Cl)s1 | 5.89 | – |
| O=C(N[C@@H](Cc1c[nH]c2ccccc12)C(=O)OCCc1ccccc1)c1ccccc1 | 5.52 | – |
